A word on the IC50: it is the point on the concentration scale where inhibition reaches its midpoint. As usually defined, the EC50 is the concentration at which the effect is half-maximal.

These results are taken from patent US20250186408A1, “TREATMENT OF PHARMACORESISTANT EPILEPSY” (Katholieke Universiteit Leuven, priority 2021, published 2025).

Read-outs that look alike come from different tables or passages of the source.

Test [1] deals with HRH2 (Homo sapiens, UniProt P25021). Kind of test: cAMP HRH2 Antagonist. The settings on record: for Emax: read-out: Max response. Format: cell-based. As for the experimental part:
cAMP Hunter cell lines were expanded from freezer stocks. […] For Gi agonist determination, cells were incubated with sample in the presence of EC80 forskolin to induce response. For both conditions, media was aspirated from cells and replaced with 15 μL 2:1 HBSS/10 mM HEPES:cAMP XS+ Ab reagent. […] 5 μL of 4× sample was added to cells and incubated at 37° C. or room temperature (RT) for 30 or 60 min. Final assay vehicle concentration was 1%. […] Media was aspirated from cells and replaced with 10 μL 1:1 HBSS/HEPES:cAMP XS+ Ab reagent. […] For Gi coupled GPCRs, EC80 forskolin was included. […] Compound activity was analyzed using CBIS data analysis suite (ChemInnovation, CA).

The subject of test [2] is male NMRI mice. In words: Mouse 6-Hz (44 mA) psychomotor seizure model. Type of test: in vivo. The settings on record: 30 min before stimulation; for dose-response relationship (in words): i.p.
Protocol: The antiseizure activity of compounds was investigated in the mouse 6-Hz (44 mA) psychomotor seizure model as described before (27). […] Seizure behaviour was video recorded and seizure durations were determined by blinded video analysis by experienced researchers, familiar with the different seizure characteristics. Data are expressed as mean±SD.
The 6-Hz 44 mA model is an acute model of pharmacoresistant focal impaired awareness seizures, previously referred to as complex partial or psychomotor seizures that are induced by a low frequency, long duration corneal electrical stimulation (6 Hz, 0.2 ms rectangular pulse width, 3 s duration, 44 mA). Seizures are typically characterized by a clonic phase and stereotypical automatic behaviours like stun, forelimb clonus, Straub tail and vibrissae twitching.
Test [3] addresses T1, EDNRA (Homo sapiens, UniProt P25101).
T1 sequence (P25101 21-427): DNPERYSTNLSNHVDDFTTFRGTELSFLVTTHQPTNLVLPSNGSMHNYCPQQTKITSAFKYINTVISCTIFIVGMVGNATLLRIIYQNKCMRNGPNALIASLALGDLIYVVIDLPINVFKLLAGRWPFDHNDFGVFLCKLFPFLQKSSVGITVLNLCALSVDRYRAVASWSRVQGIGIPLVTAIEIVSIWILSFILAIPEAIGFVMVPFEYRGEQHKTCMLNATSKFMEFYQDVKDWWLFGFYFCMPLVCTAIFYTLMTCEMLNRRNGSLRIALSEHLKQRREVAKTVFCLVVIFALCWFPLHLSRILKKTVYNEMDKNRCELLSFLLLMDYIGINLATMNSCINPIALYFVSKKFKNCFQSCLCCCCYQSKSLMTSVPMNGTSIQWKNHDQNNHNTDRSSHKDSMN
In words: Calcium Flux EDNRA Agonist. Format: cell-based. Conditions: for EC50: read-out: RC50, result type EC50; for Emax: read-out: Max response. As for the experimental part: (≤0.2% DMSO concentration). Assays were performed in 1× dye loading buffer consisting of 1× Dye (DiscoverX, Calcium No Wash^PLUS kit, Catalog No. 90-0091), 1× Additive A and 2.5 mM Probenecid in HBSS/20 mM HEPES. Probenecid was prepared fresh. Prior to testing, media was aspirated from cells and replaced with 25 μL dye loading buffer. Cells were incubated for 45 min at 37° C. and then 20 min at RT. For agonist determination, 25 μL of 2× compound in HBSS/20 mM HEPES was added using a FLIPR Tetra (MDS). […] 25 μL of 2× sample was added and cells were incubated for 30 min at RT in the dark to equilibrate plate temperature. After incubation, antagonist determination was initiated by addition of 25 μL of 1× compound with 3×EC80 agonist using FLIPR. For both agonist and antagonist formats, activity was measure on a FLIPR Tetra (MDS). Calcium mobilization was monitored for 2 min with a 5 sec baseline read.
FLIPR read—Area under the curve, was calculated for the entire 2 min read.
On the technique in general: Calcium assays in cells follow changes in intracellular calcium, usually with a dye or a luminescent sensor.

Test [4] has as its target T2, LCK (Homo sapiens, UniProt P06239).
T2 construct: purchased Eurofins DiscoverX Corporation 87-1003DR; host or cells: E. coli BL21-derived host (T7 phage) or HEK-293
In words: Binding (KINOMEscan) LCK Inhibitor. Conditions: for IC50: read-out: RC50, result type IC50; for Emax: read-out: Max response. The method, then: For most assays, kinase-tagged T7 phage strains were grown in parallel in 24-well blocks in an E. coli host derived from the BL21 strain. E. coli were grown to log-phase and infected with T7 phage from a frozen stock (multiplicity of infection=0.4) and incubated with shaking at 32° C. until lysis (90-150 min). The lysates were centrifuged (6,000×g) and filtered (0.2 μm) to remove cell debris. The remaining kinases were produced in HEK-293 cells and subsequently tagged with DNA for qPCR detection. Streptavidin-coated magnetic beads were treated with biotinylated small molecule ligands for 30 min at RT to generate affinity resins for kinase assays. The liganded beads were blocked with excess biotin and washed with blocking buffer (SeaBlock (Pierce), 1% BSA, 0.05% Tween 20, 1 mM DTT) to remove unbound ligand and to reduce non-specific phage binding. […] All reactions were performed in polypropylene 384-well plates in a final volume of 0.02 mL. […] The beads were then re-suspended in elution buffer (1×PBS, 0.05% Tween 20, 0.5 μM non-biotinylated affinity ligand) and incubated at RT with shaking for 30 min. The kinase concentration in the eluates was measured by qPCR.
The kinase concentration in the eluates was measured by qPCR. qPCR reactions were assembled by adding 2.5 μL of kinase eluate to 7.5 μL of qPCR master mix containing 0.15 μM amplicon primers and 0.15 μM amplicon probe. The qPCR protocol consisted of a 10 min hot start at 95° C., followed by 35 cycles of 95° C. for 15 sec, 60° C. for 1 min.
Binding constants (Kds) were calculated with a standard dose-response curve using the Hill equation: […]

T2 sequence (P06239 whole entry): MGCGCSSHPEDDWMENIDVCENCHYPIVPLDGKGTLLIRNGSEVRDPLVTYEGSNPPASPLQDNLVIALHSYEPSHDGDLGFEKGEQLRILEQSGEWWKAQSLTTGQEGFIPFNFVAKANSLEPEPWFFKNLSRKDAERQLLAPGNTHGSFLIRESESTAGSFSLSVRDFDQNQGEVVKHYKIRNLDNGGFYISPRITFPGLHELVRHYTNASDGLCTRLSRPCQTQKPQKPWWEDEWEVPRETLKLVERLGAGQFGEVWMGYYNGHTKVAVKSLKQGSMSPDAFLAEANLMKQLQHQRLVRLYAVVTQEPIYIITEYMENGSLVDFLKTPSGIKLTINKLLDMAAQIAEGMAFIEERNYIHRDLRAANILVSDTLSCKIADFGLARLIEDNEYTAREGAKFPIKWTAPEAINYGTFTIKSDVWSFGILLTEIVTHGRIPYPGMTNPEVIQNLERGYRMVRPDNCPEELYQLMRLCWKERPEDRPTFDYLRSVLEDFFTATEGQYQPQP
Chain of HRH2 (P25021 whole entry): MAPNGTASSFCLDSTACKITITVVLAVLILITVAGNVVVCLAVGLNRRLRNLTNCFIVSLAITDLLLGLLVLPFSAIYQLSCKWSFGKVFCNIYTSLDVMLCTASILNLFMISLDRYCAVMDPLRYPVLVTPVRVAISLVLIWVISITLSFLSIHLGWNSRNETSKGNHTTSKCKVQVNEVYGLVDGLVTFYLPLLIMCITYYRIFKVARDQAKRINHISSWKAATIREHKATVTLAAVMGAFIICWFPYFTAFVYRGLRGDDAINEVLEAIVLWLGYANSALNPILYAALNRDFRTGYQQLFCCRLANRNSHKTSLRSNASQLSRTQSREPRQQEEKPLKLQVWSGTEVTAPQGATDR

For `CC(C)(C)c1ccc(C#CC(O)c2ccccc2)cc1` (racemic) [Compound 3.3, rac-3-(4-(tert-butyl)phenyl)-1-phenylprop-2-yn-1-ol], the IC50 in test [1] and in test [4] (Binding LCK Inhibitor) was > 10 µM each time. Besides, the Emax in test [1] was 2.7%; in test [3], 0%; in test [4], 0%. For the same compound, the mean seizure duration stood at 9.5 s in test [2] (30 mg/kg i.p.); 7.7 s in test [2] (100 mg/kg i.p.); 1.1 s in test [2] (200 mg/kg i.p.); 0 s in test [2] (300 mg/kg i.p.); 1.00 s in test [2] (600 mg/kg i.p.). Further, the “dose-response relationship (in words)” value in test [2] is recorded as “displayed a dose-response relationship”. Besides, the EC50 in test [3] (Calcium Flux EDNRA Agonist) was > 10 µM.
Consider `Clc1cccc(C#Cc2n[nH]c3ncccc23)c1` [Compound 10.1, 3-((3-chlorophenyl)ethynyl)-1H-pyrazolo[3,4-b]pyridine], for which the Emax was determined as 13.9% in test [1] (cAMP HRH2 Antagonist), 1.8% in test [3] (Calcium Flux EDNRA Agonist) and 0% in test [4] (Binding LCK Inhibitor). Moreover, the IC50 in test [1] (cAMP HRH2 Antagonist, read-out: RC50, result type IC50) is > 10 µM; in test [4] (Binding LCK Inhibitor), > 10 µM. Moreover, the mean seizure duration is recorded as 6.2 s in test [2] (10 mg/kg i.p.); 5.5 s in test [2] (30 mg/kg i.p.); 6.0 s in test [2] (100 mg/kg i.p.); 8.5 s in test [2] (200 mg/kg i.p.); 3.0 s in test [2] (300 mg/kg i.p.); 1.2 s in test [2] (400 mg/kg i.p.). Moreover, the mean seizure duration in test [2] (600 mg/kg i.p.) came to 0.8 s. Besides, in test [2], the “dose-response relationship (in words)” value is “displayed a dose-response relationship”. The EC50 in test [3] (Calcium Flux EDNRA Agonist) was > 10 µM.
